Patent US20040077092A1, “Control and calibration material for blood coagulation tests” (priority 2002, published 2004)

Tests used:
Type in all cases: biochemical
[1] = tested on: Citrate plasma that was obtained from rabbits; assay: Prothrombin time test, CoaguChek Pro; prolongation substance added to plasma before lyophilization; settings: lyophilized, rehydrated with distilled water, PT
Experimental: Production and Use of the Inventive Control and Calibration Material for the Product CoaguChek® Pro (test for determining the prothrombin time) from Roche Diagnostics
Effect of the Prolongation Substance when Added to Plasma for the Production of the Control and Calibration Material.
Citrate plasma that was obtained from rabbits was processed further as follows.
A portion of the citrate plasma is left untreated and filled in 3.0 ml portions into siliconized vessels and lyophilized. The remainder of the plasma is used to produce preparations to which 2.0%, 3.5% and 5.0% urea (in each case % by weight) is added in each case to the plasma as the prolongation substance. These mixtures are also filled in 3.0 ml portions and lyophilized.
After rehydration of the individual preparations with distilled water, the samples obtained in this manner are added dropwise to test cards of the CoaguChek® Pro from Roche Diagnostics and the seconds which elapse until the onset of coagulation is determined on the accompanying measuring instrument CoaguChek® Pro.

[2] = tested on: Commercial control material level 1 for the CoaguChek system; assay: Prothrombin time test, CoaguChek system; prolongation substance in the rehydration solution; settings: PT
Source text: Effect of the Prolongation Substance when Added to the Rehydration Solution
[…] These solutions are subsequently measured with the CoaguChek® system (test plus measuring instrument).

[3] = tested on: control plasma "PreClot I/II"; assay: aPTT (activated partial thromboplastin time), PTT a reagent, ball coagulometer KC10A
Experimental: Effect of the Inventive Prolongation Substances when Added to Control Plasmas to Monitor the Determination of aPTT (activated partial thromboplastin time)
The control plasma “PreClot I/II” from Roche Diagnostics is rehydrated according to the instructions of the manufacturer with aqueous solutions in which 0%, 2.0%, 3.5% and 5.0% N-methyl urea (in each case % by weight) are dissolved. The “PTT a reagent for the automated and manual determination of the activated partial thromboplastin time” from Roche Diagnostics is used to determine the clotting time in seconds in the control solutions obtained in this manner on a ball coagulometer KC10A from the Amelung Company (Germany).
The experimental protocol is the same as described in example 2a).
The only amendment was that the following concentrations of guanidine hydrochloride were added to the rehydration solution (in each case % by weight): 0%, 0.5% 1.0% and 1.5%.

[4] = tested on: lyophilized control plasma "ACT quality control CoaguChek Pro system level 1"; assay: Activated clotting time (ACT), ACT test cassettes of the CoaguChek Pro system
Experimental: Effect of the Prolongation Substances According to the Invention when Added to Control Plasmas to Monitor the Determination of the Activated Clotting Time (ACT)
The lyophilized control plasma “ACT quality control CoaguChek® Pro system level 1” from Roche Diagnostics was rehydrated with the supplied rehydration solution according to the instructions of the manufacturer. 0%, 0.25%, 0.5% and 0.75% guanidine hydrochloride (in each case % by weight) were added to these solutions.

[5] = 0.5 % by weight guanidine in the rehydration solution

Compound: NC(N)=O [urea]
- time until the onset of coagulation ([1]; 2.0 % by weight urea added to rabbit citrate plasma): 22.9 s
- time until the onset of coagulation ([1]; 3.5 % by weight urea added to rabbit citrate plasma): 29.6 s
- time until the onset of coagulation ([1]; 5.0 % by weight urea added to rabbit citrate plasma): 41.2 s
- time until the onset of coagulation ([2]; 2.0 % by weight urea in the rehydration solution): 19.3 s
- time until the onset of coagulation ([2]; 3.0 % by weight urea in the rehydration solution): 28.1 s
- time until the onset of coagulation ([2]; 4.0 % by weight urea in the rehydration solution): 32.2 s
- time until the onset of coagulation ([2]; 5.0 % by weight urea in the rehydration solution): 37.8 s

Compound: CNC(N)=O [N-methyl-urea]
- time until the onset of coagulation ([3]; 2.0 % by weight N-methyl-urea in the rehydration solution): 34.0 s
- time until the onset of coagulation ([3]; 3.5 % by weight N-methyl-urea in the rehydration solution): 38.6 s
- time until the onset of coagulation ([3]; 5.0 % by weight N-methyl-urea in the rehydration solution): 44.0 s

Compound: Cl.N=C(N)N [guanidine, guanidine hydrochloride]
- time until the onset of coagulation [3, 5]: 33.1 s
- time until the onset of coagulation ([3]; 1.0 % by weight guanidine in the rehydration solution): 41.9 s
- time until the onset of coagulation ([3]; 1.5 % by weight guanidine in the rehydration solution): 51.8 s
- time until the onset of coagulation ([4]; 0.25 % by weight guanidine in the rehydration solution): 175.6 s
- time until the onset of coagulation [4, 5]: 223.4 s
- time until the onset of coagulation ([4]; 0.75 % by weight guanidine in the rehydration solution): 305.6 s
